Where two headings read alike, the source gives them in different places.
Experiments:
cynomolgus monkeys = system: cynomolgus monkeys; parameters: method as in Gill et al., 2017; settings: ref Gill et al., 2017; cited from earlier work
[1] = system: Annexin V activation in hiPSC-CMs; type: cell-based
Experimental: The assays were performed according to manufacturer instructions.
The nonparametric Wilcoxon-Mann Whitney Test was used to compare the percent change from the baseline (Δ%) value between the group treated with the compound at a given concentration and the group treated with the DMSO at each matching time points. A two-sided test at 5% significance level was considered. […] To assess the physiological relevance of changes, a tolerance interval of DMSO experiments was calculated at each time point, for each parameter. […] TIs indicate an interval where, with a certain confidence level (1- α = 0.95), a specified proportion (p = 0.80) of percent change for DMSO data falls. The lower and upper limits based on the TI values were used as cut-offs for the interpretation of the changes. For the cytotoxicity assays, measurements of fluorescence (after background fluorescence subtraction) from wells treated with the compounds were normalized by the average value of vehicle experiments (DMSO 0.1%) to obtain a DMSO-corrected, delta/delta percent change. Experiments from each condition, as delta/delta percent, were averaged and expressed as mean ± SD. Statistical analysis was performed using a non-parametric test (Kruskal-Wallis) and each treatment condition was compared to the relative DMSO 0.1%. Differences were considered statistically significant when the p-value was smaller than 0.05.

[2] = system: hiPSC-CMs (iCell-Cardiomyocytes^2); test: ApoLive-Glo Multiplex Assay: viability (live cells); type: cell-based, human
Experimental: (§1) iCell-Cardiomyocytes^2 (Fujifilm Cellular Dynamics Inc., Madison, WI, United States) were seeded into 96 well-plates (Greiner Bio One, ref. 655946) according to the manufacturer instructions, at a density of 50 k cells/well. […] To assess effects on viability and cytotoxicity, two assay combination kits were used: 1) RealTime-Glo™ Annexin V Apoptosis and Necrosis Assay [Promega, JA1011 ([Kupcho et al., 2019])] and 2) ApoLive-Glo Multiplex Assay [Promega, G6410 ([Flörkemeier et al., 2022])]. The assays were performed according to manufacturer instructions. The experiments were repeated at 24, 48, and 72 h in order to assess any time-dependent change in live cells or activation of cell-death pathways.
(§2) The nonparametric Wilcoxon-Mann Whitney Test was used to compare the percent change from the baseline (Δ%) value between the group treated with the compound at a given concentration and the group treated with the DMSO at each matching time points. A two-sided test at 5% significance level was considered. […] To assess the physiological relevance of changes, a tolerance interval of DMSO experiments was calculated at each time point, for each parameter. Specifically, the Δ% values of all (pooled) DMSO wells (N = 81) were used to obtain the non-parametric 80%–95% (p = 0.80 & 1-α = 0.95) tolerance interval (TI). TIs indicate an interval where, with a certain confidence level (1- α = 0.95), a specified proportion (p = 0.80) of percent change for DMSO data falls. The lower and upper limits based on the TI values were used as cut-offs for the interpretation of the changes. For the cytotoxicity assays, measurements of fluorescence (after background fluorescence subtraction) from wells treated with the compounds were normalized by the average value of vehicle experiments (DMSO 0.1%) to obtain a DMSO-corrected, delta/delta percent change. Experiments from each condition, as delta/delta percent, were averaged and expressed as mean ± SD. Statistical analysis was performed using a non-parametric test (Kruskal-Wallis) and each treatment condition was compared to the relative DMSO 0.1%. Differences were considered statistically significant when the p-value was smaller than 0.05.

[3] = system: hiPSC-CMs (iCell-Cardiomyocytes^2); test: RealTime-Glo Annexin V Apoptosis and Necrosis Assay: necrosis; type: cell-based, human
Experimental: as §1, §2

[4] = system: caspases 3,7 in hiPSC-CMs; test: ApoLive-Glo Multiplex Assay: apoptosis, caspases 3,7 activation; type: cell-based, human
Experimental: as §1, §2

patients = system: patients; parameters: method as in Wenningmann et al., 2019; settings: doses above 700 mg/m^2; ref Wenningmann et al., 2019; cited from earlier work
[5] = system: human embryonic stem cell-derived cardiomyocytes; parameters: method as in Hihara et al., 2014; settings: 10 µM; 24 h-treatment; 4% in vehicle-treated wells; ref Hihara et al., 2014; cited from earlier work

## COc1nc(N)nc2c1ncn2[C@@H]1O[C@H](COP(=O)(N[C@@H](C)C(=O)OCC(C)(C)C)Oc2cccc3ccccc23)[C@@H](O)[C@@]1(C)O (some centres unmarked) [BMS-986094]
Cynomolgus monkeys
  estimated dose that caused cardiotoxicity: 3 µM

## C[C@H](CS)C(=O)N1CCC[C@H]1C(=O)O [Captopril]
[1]; 24, 48, 72 h
  apoptosis activation: did not display any significant changes in necrosis or apoptosis activation
[2]; 10 µM, 24h
  Live Cells (viability), Mean±SD: -8.4±17.4 Δ/Δ%
[2]; 10 µM, 48h
  Live Cells (viability), Mean±SD: -9.1±9.5 Δ/Δ%
[2]; 10 µM, 72h
  Live Cells (viability), Mean±SD: 2.4±8.5 Δ/Δ%
[2]; any of the time points (24, 48, 72 h)
  number of live cells: did not show any significant change in live cell number
[3]; 10 µM, 24h
  Necrosis, Mean±SD: 21.5±33.7 Δ/Δ%
[3]; 10 µM, 48h
  Necrosis, Mean±SD: -8.1±21.1 Δ/Δ%
[3]; 10 µM, 72h
  Necrosis, Mean±SD: 13.9±44.2 Δ/Δ%
[3]; 24, 48, 72 h
  necrosis activation: did not display any significant changes in necrosis or apoptosis activation
[4]; 10 µM, 24h
  Caspases 3, 7 (apoptosis activation), Mean±SD: -6.9±11.1 Δ/Δ%
[4]; 10 µM, 48h
  Caspases 3, 7 (apoptosis activation), Mean±SD: -3±10.7 Δ/Δ%
[4]; 10 µM, 72h
  Caspases 3, 7 (apoptosis activation), Mean±SD: -3.6±5 Δ/Δ%

## COc1cccc2c1C(=O)c1c(O)c3c(c(O)c1C2=O)C[C@@](O)(C(=O)CO)C[C@@H]3O[C@H]1C[C@H](N)[C@H](O)[C@H](C)O1 [Doxorubicin]
[1]; 0.3 µM, 24h
  Annexin V (apoptosis activation), Mean±SD: 24.6±24 Δ/Δ%
[1]; 0.3 µM, 48h
  Annexin V (apoptosis activation), Mean±SD: 31.2±28.5 Δ/Δ%
[1]; 24, 48, 72 h
  activation of Annexin V (apoptosis): largest activation of caspases 3,7, and of Annexin V
[2]; 0.3 µM, 24h
  Live Cells (viability), Mean±SD: -7.1±16.9 Δ/Δ%
[2]; 0.3 µM, 48h
  Live Cells (viability), Mean±SD: -9±11.9 Δ/Δ%
[2]; 0.3 µM, 72h
  drop in live cells assay: ~40%
[2]; 1 µM, 24h
  Live Cells (viability), Mean±SD: -10.5±16.2 Δ/Δ%
[2]; 10 µM, 24, 48, 72 h
  number of live cells: strong impact on the number of live cells, further decreasing over time
[3]; 0.3 µM, 24h
  Necrosis, Mean±SD: 9.8±45.2 Δ/Δ%
[3]; 0.3 µM, 48h
  Necrosis, Mean±SD: 40.2±103.1 Δ/Δ%
[3]; 1 µM, 24h
  Necrosis, Mean±SD: 9.8±27 Δ/Δ%
[3]; 1 µM, 48h
  Necrosis, Mean±SD: 72.9±120.4 Δ/Δ%
[3]; over time, especially at 72 h
  activation of necrosis: also showed the activation of necrosis
[4]; 0.3 µM, 24h
  Caspases 3, 7 (apoptosis activation), Mean±SD: 0.6±15.9 Δ/Δ%
[4]; 0.3 µM, 48h
  Caspases 3, 7 (apoptosis activation), Mean±SD: 109.5±125.1 Δ/Δ%
[4]; 10 µM, 72h
  Caspases 3, 7 (apoptosis activation), Mean±SD: 113±14.3 Δ/Δ%
[4]; 24, 48, 72 h
  activation of caspases 3,7 (apoptosis): induced the largest activation of caspases 3,7
patients
  congestive heart failure, share of patients: up to 48%

## N=C(N)c1ccc(OCCCCCOc2ccc(C(=N)N)cc2)cc1 [Pentamidine]
[5]
  FPDc prolongation: 62%

## CCN(CC)CCNC(=O)c1c(C)[nH]c(/C=C2\C(=O)Nc3ccc(F)cc32)c1C [Sunitinib]
[1]; 1 µM, 24h
  Annexin V (apoptosis activation), Mean±SD: -7.5±2.1 Δ/Δ%
[1]; 1 µM, 48h
  Annexin V (apoptosis activation), Mean±SD: -11.9±4.5 Δ/Δ%
[1]; 1 µM, 72h
  Annexin V (apoptosis activation), Mean±SD: -0.3±7 Δ/Δ%
[1]; 3 µM, 24h
  Annexin V (apoptosis activation), Mean±SD: 7±8.3 Δ/Δ%
[1]; 10 µM, 48h
  Annexin V (apoptosis activation), Mean±SD: 14.8±35.2 Δ/Δ%
[1]; 10 µM, 72h
  Annexin V (apoptosis activation), Mean±SD: -32.7±15.7 Δ/Δ%
[2]; 1 µM, 24h
  Live Cells (viability), Mean±SD: -12.5±1.8 Δ/Δ%
[2]; 1 µM, 48h
  Live Cells (viability), Mean±SD: -8.8±2.9 Δ/Δ%
[2]; 1 µM, 72h
  Live Cells (viability), Mean±SD: 5.8±5.9 Δ/Δ%
[2]; 3 µM
  number of live cells: did not cause a relevant change
[2]; 3 µM, 72h
  Live Cells (viability), Mean±SD: -21.4±3.7 Δ/Δ%
[2]; 3 µM, 24h
  Live Cells (viability), Mean±SD: -1.8±19.3 Δ/Δ%
[2]; 3 µM, 48h
  Live Cells (viability), Mean±SD: -13.1±9.7 Δ/Δ%
[2]; 10 µM, 24, 48, 72 h
  number of live cells: significant decrease in the number of live cells
[2]; 48 h time point
  concentration at which decrease in live-cell count occurred, times the median fCmax: higher than 300
[3]; 1 µM, 72h
  Necrosis, Mean±SD: 88.5±23.2 Δ/Δ%
[3]; especially at 10 µM
  necrosis-driven cell death: predominant necrosis-driven cell death
[4]; 1 µM, 24h
  Caspases 3, 7 (apoptosis activation), Mean±SD: 11±8.3 Δ/Δ%
[4]; 1 µM, 72h
  Caspases 3, 7 (apoptosis activation), Mean±SD: 70.2±31.9 Δ/Δ%
[4]; 10 µM, 48h
  Caspases 3, 7 (apoptosis activation), Mean±SD: 42.9±61.5 Δ/Δ%
[4]; 10 µM, 72h
  Caspases 3, 7 (apoptosis activation), Mean±SD: -45±134.8 Δ/Δ%

Reference: article PMC10364322, “Evaluation of chronic drug-induced electrophysiological and cytotoxic effects using human-induced pluripotent stem cell-derived cardiomyocytes (hiPSC-CMs)” (Frontiers in Pharmacology, 2023)
